One experiment has as its system A549 lung cancer cells. Briefly: SRB growth inhibition of A549 lung cancer cells. Format: cell-based, human.
The test system of experiment [1] is endoplasmic reticulum (ER) Ca^2+. Kind of experiment: Depletion of endoplasmic reticulum Ca2+ (ER-targeted cameleon proteins, FRET). In kind it is cell-based. The settings on record: ER-targeted Ca^2+-sensitive proteins. As for the experimental part:
FIGS. 2A-2B depict compound 1181 activity. […] These proteins emit light and the Ca^2+ content is measured by fluorescent resonance energy transfer (FRET).
Without intending to be bound by theory, the mechanism of action of translation initiation inhibitors is set forth in FIG. 1, and includes the depletion (complete or partial depletion) of intracellular calcium (Ca^2+) stores and phosphorylation of eIF2α. Compounds synthesized using the approaches described herein were screened for their ability to partially deplete intracellular Ca^2+ stores using FURA-2AM loaded cells (Benzaquen et al. (1995) Nature Medicine, 1:534, incorporated herein by reference in its entirety for all purposes). A limited subset of compounds were further screened for their ability to deplete endoplasmic reticulum (ER) Ca^2+. The Ca^2+ content of the ER was monitored using ER-targeted, Ca^2+ sensitive, recombinant proteins. These recombinant proteins emitted light by fluorescent resonance energy transfer (FRET) as a function of the Ca^2+ content of the medium. […] Compounds that depleted Ca^2+ were further evaluated for their ability to phosphorylate eIF2α. eIF2α phosphorylation was measured by Western blot analysis using the phospho-specific anti-eIF2α antibody, as previously described (Aktas et al. (1998) Proc. Natl. Acad. Sci. USA, 95:8280, incorporated herein by reference in its entirety for all purposes).

Experiment [2] deals with squamous cell carcinoma (KLN) tumor. Kind of experiment: Squamous cell carcinoma (KLN) tumor mass in mice. In kind it is in vivo. The settings on record: DBA/2J mice, oral, 320 mg/kg/day, six weeks.
Another experiment has as its system eIF2α. Kind of experiment: eIF2α phosphorylation measured by Western blot. Format: cell-based. Summed up: (§1)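 Ca2+ release scored in FURA-2AM loaded cells as "+" (release) or "+/−" (inconclusive); some compounds also tested with ER-targeted FRET Ca2+ sensors. Ca2+-depleting compounds were then tested for eIF2α phosphorylation by Western blot with phospho-specific anti-eIF2α antibody.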
(Immunoblotting shows a protein as a band on a membrane.)

Experiment [3] concerns ternary complex in transgenic KLN cells. Kind of experiment: Ternary complex assay. In kind it is cell-based. The settings on record: transgenic KLN cells. As for the experimental part:
FIGS. 3A-3C depict compound 1181 activity. (A) depicts the drug induced phosphorylation of eIF2α protein in control (lane 1), positive control (lane 2) and 1181 (lane 3) measured using Western blot analysis.
Ternary complex assay was 8-fold over DMSO at 20 μM, and cell growth was inhibited at <1 μM. The plasma levels for this in mice were estimated using liquid chromatography and mass spectrometry (LC-MS). Compound 1430 was orally administered at 160 mg/kg, 240 mg/kg, and 320 mg/kg to DBA/2J mice and the plasma concentration was measured at three time points, one hour, three hours, and six hours, and is set forth in Table 15. The plasma was isolated from the mice by heart-lung puncture and the samples were processed and analyzed by LC-MS. The concentrations at each time and dose are in nmoles/mL of plasma (n.d.=not detected; X=not determined).

Experiment [4] deals with intracellular Ca^2+ stores. Briefly: Ca2+ release from intracellular stores (FURA-2AM loaded cells). In kind it is cell-based. Set-up: key to Ca^2+ (Ca^2+ release from intracellular stores): a “+” denotes release; a “+/−” denotes inconclusive. Summed up: as §1

“Also recorded” adds a separate entry of the source.

The term IC50 denotes the concentration that inhibits the measured activity by half.

For the molecule `CC(C)(C)c1ccc(O)c(C2(c3ccccc3)C(=O)Nc3ccccc32)c1` (stereo not drawn) [Compound 1181, 3-(5-tert-butyl-2-hydroxy-phenyl)-3-phenyl-1,3-dihydro-indol-2-one], the “growth inhibition of cancer cells (in words)” value in the experiment with A549 lung cancer cells (A549) was “inhibited growth of a cancer cell line (A549)”. Further, the IC50 in the experiment with A549 lung cancer cells (Homo sapiens, A549 lung cancer cells, unit inferred, read-out: SRB (IC50 for growth inhibition of A549 lung cancer cells)) worked out at 3 µM. The “depletion of ER Ca^2+ (in words)” value in experiment [1] was “depleted ER-Ca^2+; also recorded: depletion of endoplasmic reticulum (ER) Ca^2+”. Moreover, the “squamous cell carcinoma (KLN) tumor mass” value in experiment [2] was “decreased squamous cell carcinoma tumor mass in mice; also recorded: decrease in squamous cell carcinoma (KLN) tumor mass”. Further, the “eIF2α phosphorylation (in words)” value with eIF2α is “phosphorylated eIF2α”. Moreover, in the experiment on eIF2α (Western blot, unit or reference not given), the “eIF2α-P (phosphorylation of eIF2α measured by Western blot)” value stood at 5. The “depletion of ternary complex (in words)” value in experiment [3] was “depletion of ternary complex”. Also, in experiment [4], the “Ca^2+ (Ca^2+ release from intracellular stores)” value is recorded as “+” and the “Ca^2+ release / depletion of intracellular Ca^2+ (in words)” value is on record as “calcium (Ca^2+) release in a dose dependent manner”.

The record behind these values is patent US8044089B2, “3-3-di-substituted-oxindoles as inhibitors of translation initiation” (President and Fellows of Harvard College, priority 2004, dated 2011).
